Assay results: patent US8440819B2, “Therapeutic substituted beta-lactams” (Allergan, Inc., priority 2008, dated 2013)

Key:
EP2 [1] = target: T1, EP2 (Homo sapiens, UniProt P43116); assay: EP2 flipr; type: cell-based
Text: (§1) U.S. patent application Ser. No. 11/553,143, filed on Oct. 26, 2006, incorporated by reference herein, describes the methods used to obtain the in vitro data in Table 1 below.

EP2 [2] = target: T1, EP2; assay: EP2 cAMP; type: cell-based
Text: as §1

EP2 [3] = target: T1, EP2; assay: EP2 binding (Ki)
Text: as §1

EP4 [4] = target: T2, EP4 (Homo sapiens, UniProt P35408); assay: EP4 flipr; type: cell-based
T2 sequence (P35408 whole entry): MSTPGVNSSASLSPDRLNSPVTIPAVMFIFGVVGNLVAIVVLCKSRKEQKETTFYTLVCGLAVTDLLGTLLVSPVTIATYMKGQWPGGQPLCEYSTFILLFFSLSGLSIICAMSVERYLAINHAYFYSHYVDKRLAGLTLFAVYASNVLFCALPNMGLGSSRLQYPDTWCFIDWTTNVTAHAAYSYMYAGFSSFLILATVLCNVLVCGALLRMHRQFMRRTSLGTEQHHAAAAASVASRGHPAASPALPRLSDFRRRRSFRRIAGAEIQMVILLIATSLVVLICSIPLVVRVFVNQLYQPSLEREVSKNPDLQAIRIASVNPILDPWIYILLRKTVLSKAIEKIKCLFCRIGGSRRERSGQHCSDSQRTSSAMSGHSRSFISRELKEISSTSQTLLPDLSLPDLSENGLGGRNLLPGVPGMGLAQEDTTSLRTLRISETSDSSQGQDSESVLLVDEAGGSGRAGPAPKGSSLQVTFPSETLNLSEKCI
Text: as §1

EP4 [5] = target: T2, EP4; assay: EP4 binding (Ki); conditions: read-out: EP4 data Kl
Text: as §1

hEP3A = target: T3, hEP3A (Homo sapiens, UniProt P43115); assay: Other receptors functional EC50, hEP3A; type: cell-based
T3 sequence (P43115 1-390): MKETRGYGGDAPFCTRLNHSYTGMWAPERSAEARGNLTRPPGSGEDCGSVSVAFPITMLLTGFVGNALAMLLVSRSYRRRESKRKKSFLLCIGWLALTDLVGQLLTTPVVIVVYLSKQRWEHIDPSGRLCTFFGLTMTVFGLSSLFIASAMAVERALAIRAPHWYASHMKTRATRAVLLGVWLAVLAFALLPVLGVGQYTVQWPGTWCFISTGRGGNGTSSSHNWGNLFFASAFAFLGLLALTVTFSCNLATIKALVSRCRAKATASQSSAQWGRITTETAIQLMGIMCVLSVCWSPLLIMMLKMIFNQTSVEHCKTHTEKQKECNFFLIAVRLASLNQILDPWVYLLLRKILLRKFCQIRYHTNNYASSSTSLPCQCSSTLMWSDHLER
Text: as §1

hDP = target: T4, hDP (Homo sapiens, UniProt Q13258); assay: Other receptors functional EC50, hDP; type: cell-based
T4 sequence (Q13258 1-359): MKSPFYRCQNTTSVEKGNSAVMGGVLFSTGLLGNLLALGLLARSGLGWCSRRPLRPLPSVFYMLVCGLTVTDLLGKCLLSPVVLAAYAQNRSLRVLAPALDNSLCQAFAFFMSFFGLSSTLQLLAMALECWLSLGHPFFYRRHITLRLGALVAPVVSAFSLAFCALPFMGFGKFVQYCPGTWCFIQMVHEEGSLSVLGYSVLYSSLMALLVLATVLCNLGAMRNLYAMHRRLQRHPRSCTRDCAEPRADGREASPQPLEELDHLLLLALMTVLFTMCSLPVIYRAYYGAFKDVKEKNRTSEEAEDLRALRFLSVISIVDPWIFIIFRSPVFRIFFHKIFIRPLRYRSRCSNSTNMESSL
Text: as §1

normotensive dogs = assay: Intraocular pressure and ocular surface hyperemia in normotensive dogs; type: in vivo, dog; conditions: 0.01%, once daily for 5 days
Method: (§2) U.S. Pat. No. 7,091,231 describes the methods used to carry out the tests reported below.
(§3) Isopropyl (5-(3-((2S)-1-(4-(1-hydroxyhexyl)phenyl)-4-oxoazetidin-2-yl)propyl)thiophene-2-carboxylate (12) was tested in normotensive dogs at 0.01%, dosing once daily for 5 days. The maximum intraocular pressure (IOP) decrease from baseline was 3.7 mmHg (25%) at 6 h; the maximum ocular surface hyperemia (OSH) score was 1.7 at 50 h. This compound was also tested in laser-induced hypertensive monkeys, using one single day dose. At 0.01%, the maximum IOP decrease from baseline was 12.6 mmHg (35%) at 24 h.

[6] = tested on: laser-induced hypertensive monkeys; assay: Intraocular pressure in laser-induced hypertensive monkeys; type: in vivo, monkey; conditions: 0.01%, one single day dose, at 24 h
Method: as §2, §3

T1 sequence (P43116 whole entry): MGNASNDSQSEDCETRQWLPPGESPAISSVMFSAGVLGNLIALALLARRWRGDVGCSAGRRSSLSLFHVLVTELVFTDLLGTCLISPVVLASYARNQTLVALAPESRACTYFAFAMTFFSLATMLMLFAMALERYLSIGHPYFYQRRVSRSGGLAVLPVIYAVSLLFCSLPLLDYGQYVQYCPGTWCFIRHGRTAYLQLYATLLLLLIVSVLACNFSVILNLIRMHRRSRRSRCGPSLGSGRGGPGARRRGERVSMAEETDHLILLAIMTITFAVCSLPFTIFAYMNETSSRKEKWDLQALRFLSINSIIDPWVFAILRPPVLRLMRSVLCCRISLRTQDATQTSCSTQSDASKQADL

CCCCCC(O)c1ccc(N2C(=O)C[C@@H]2CCCc2ccc(C(=O)O)s2)cc1 (mixture of isomers) [compound 11]
EC50 (EP2 [1]): 1.1 nM
EC50 (EP2 [2]): 0.4 nM
Ki (EP2 [3]): 10 nM
EC50 (EP4 [4]): > 10000 nM
Ki (EP4 [5]): 1450 nM
EC50 (hEP3A): 42 nM
EC50 (hDP): 4740 nM

CCCCCC(O)c1ccc(N2C(=O)C[C@@H]2CCCc2ccc(C(=O)OC(C)C)s2)cc1 (stereo partly drawn) [compound 12]
maximum intraocular pressure (IOP) decrease from baseline (normotensive dogs; at 6 h): 3.7 mmHg
maximum intraocular pressure (IOP) decrease from baseline, percent (normotensive dogs; at 6 h): 25%
maximum ocular surface hyperemia (OSH) score (normotensive dogs; at 50 h): 1.7
maximum IOP decrease from baseline [6]: 12.6 mmHg
maximum IOP decrease from baseline, percent [6]: 35%
